Data: BindingDB's records for aid1799748 (Csar, 2012)

Target: Urokinase-type plasminogen activator (Homo sapiens, UniProt P00749)
Assay: Abbott uPA__Urokinase Human - Ki(uM)
Details: pH 7.4; 25 °C

| SMILES | Ki |
| --- | --- |
| C#CCN(C)C(=O)c1ccc2ccc(N)nc2c1 [uPa_33] | > 100 µM |
| N=C(N)c1ccc2cc(/C=C/CCc3cccnc3)cc(Br)c2c1 [uPa_32] | 3.08 µM |
| CC(C)Oc1ccc2cc(C(=N)N)ccc2c1 [uPa_5] | 7.28 µM |
| COC(=O)Nc1ccc2nc(N)ccc2c1 [uPa_24] | > 50 µM |
| N=C(N)c1ccc2cc(NS(=O)(=O)c3ccccc3)ccc2c1 [uPa_14] | 8.7 µM |
| N=C(N)c1ccc2cc(C(=O)Nc3ccccc3)cc(-c3ncccn3)c2c1 [uPa_21] | 7.85 µM |
| COc1cc2ccc(C(=N)N)cc2c(OC)c1OC [uPa_2] | 8.03 µM |
| CN(CC#N)C(=O)c1ccc2ccc(N)nc2c1 [uPa_35] | > 100 µM |
| C=CCNC(=O)Nc1cccc2ccc(N)nc12 [uPa_30] | > 10 µM |
| CS(=O)(=O)n1cc(-c2cc(C(=O)Nc3ccccc3)cc3ccc(C(=N)N)cc23)cn1 [uPa_20] | 0.769 µM |
| COC(=O)Nc1ccc2nc(C(=N)N)ccc2c1 [uPa_27] | > 50 µM |
| CCOc1cc(OCC)c(OCC)cc1/C=C/c1cc(Br)c2cc(C(=N)N)ccc2c1 [uPa_38] | 0.777 µM |
| CS(=O)(=O)Nc1cc(CCc2ccccc2)cc2ccc(C(=N)N)cc12 [uPa_37] | 1.49 µM |
| Nc1cc2ccccc2cn1 | > 30 µM |
| N#CC(CCOc1cccc2ccc(N)nc12)(c1ccccc1)c1ccccc1 [uPa_16] | > 40 µM |
| CN1CCc2ccc(C3CC3c3ccc4cc(C(=N)N)ccc4c3)cc2C1c1cccnc1 (stereo not drawn) [uPa_44] | 1.25 µM |
| Nc1ccc2nc(N)ccc2c1 [uPa_23] | > 104 µM |
| N=C(N)NC(=O)c1nc(Cl)c(NCc2cc(Cl)cc(Cl)c2)nc1N [uPa_22] | 3.57 µM |
| Nc1cnc2ccccc2n1 [uPa_1] | > 50 µM |
| COc1ccc2ccc(C(=N)N)cc2c1-c1cnn(C(C)C)c1 [uPa_11] | 4.5 µM |
| CC(C)CN(CC(C)C)C(=O)c1ccc2ccc(N)nc2c1 [uPa_34] | > 100 µM |
| N=C(N)NC(=O)c1ccc(Cl)c(S(N)(=O)=O)c1 [uPa_45] | > 100 µM |

The next molecules have a lower Ki than those just listed; values first:

| Ki | SMILES |
| --- | --- |
| 0.665 µM | N=C(N)c1ccc2cc(C#Cc3cccc(OC4CCCC4)c3)ccc2c1 [uPa_25] |
| 0.29 µM | N=C(N)c1ccc2cc(C(=O)Nc3ccc4c(c3)C(c3ccccc3)=NCC4)ccc2c1 [uPa_29] |
| 0.223 µM | CN1CCc2ccc(/C=C/c3ccc4cc(C(=N)N)ccc4c3)cc2C1C1CCCCC1 (stereo not drawn) [uPa_40] |
| 0.094 µM | COc1cc(C2CC2c2ccc3c(c2)C(C(C)C)N(C)CC3)cc2ccc(C(=N)N)cc12 (stereo not drawn) [uPa_42] |
| 0.066 µM | N=C(N)c1ccc2cc(C(=O)Nc3ccc4c(c3)C(C3CCCCC3)=NCC4)ccc2c1 [uPa_31] |
| 0.042 µM | CN1CCc2ccc(C3CC3c3ccc4cc(C(=N)N)ccc4c3)cc2C1C1CCC1 (stereo not drawn) [uPa_41] |
| 0.033 µM | COc1cc(NC(=O)c2ccc3cc(C(=N)N)ccc3c2)cc(OC(C)C)c1 [uPa_28] |
| 0.018 µM | COC(=O)Nc1cc(C(=O)Nc2ccccc2)cc2ccc(C(=N)N)cc12 [uPa_36] |
| 0.016 µM | CC(C)C1=NCCc2ccc(NC(=O)c3cc(Br)c4cc(C(=N)N)ccc4c3)cc21 [uPa_26] |
| 0.009 µM | CC(C)C1c2cc(C3CC3c3cc(/C=C/C4CC4)c4cc(C(=N)N)ccc4c3)ccc2CCN1C (stereo not drawn) [uPa_43] |
| 0.0009 µM | COC(=O)Nc1cc(C(=O)Nc2ccc(CN)cc2)cc2ccc(C(=N)N)cc12 [uPa_17] |
